This is an account of results in PMC4933242, “Low or No Inhibitory Potency of the Canonical Galectin Carbohydrate-binding Site by Pectins and Galactomannans*” (The Journal of Biological Chemistry, 2016).

Structures are written as SMILES.

Assay [1] addresses T1, galectin-3 (Homo sapiens, UniProt P17931). In words: Fluorescence anisotropy assay, galectin-3. The note with it: MIC = inhibitor concentration bringing bound probe to 50%; Fig. 4. It counts as binding. The protocol:
FA was used to analyze interactions of probes and ligands with galectins in solution, as described before ([41][–][44]). A PheraStarFS plate reader, with software PHERAstar Mars version 2.10 R3 (BMG, Offenburg, Germany), was used, and FA of fluorescein-tagged saccharide probes was measured with excitation at 485 nm and emission at 520 nm.
The anisotropy (A) is given in units of mA, where the theoretical maximum is 400, and the value for free fluorescein typically 23. All conditions were measured in at least two duplicate wells.
In this study, the effect of inhibitors of the saccharide probe/galectin interaction was tested in two ways. In the first, a fixed low concentration of fluorescein-tagged probe (0.1 μM) and galectin were mixed with a range of concentrations of inhibitor. An optimal probe was chosen for each galectin to permit use of as low as possible concentration of galectin, while still achieving a sufficient rise in anisotropy for a reliable measuring range ([42][–][44]). […] With structurally defined inhibitors (pure synthetic galacto-oligosaccharides, small galactomannans, and reference ligands) the molecular mass, molar concentrations, and number of binding sites (in this case one binding site per ligand) were known and their dissociation constants (Kd) could therefore be directly calculated, using the data from the FA assay as described in Sörme et al. ([41]). […] Even if the molar concentration of the inhibitor is not known, the anisotropy value at a given condition permits calculation of the molar concentration of free galectin, as described below, and from this what fraction of the galectin is bound by a given mass per volume concentration of inhibitor. From this, the ratio of the molar concentration of the free inhibitor binding sites to their Kd value can be calculated, even if the FA assay cannot distinguish between the case when this is due to a few high affinity binding sites in the polysaccharide fraction or many of low affinity.

The target in assay [2] is T1, galectin-3. In words: Galectin-3-induced hemagglutination of hen erythrocytes in V-shaped microplates. The note with it: for Estimated MIC, inhibition of galectin-3-induced hemagglutination, V-plate: MIC given as concentration interval. It counts as cell-based. The protocol:
Hemagglutination by galectin-3 was investigated in two assays, hemagglutination in V-shaped microplates (96 wells) and hemagglutination in gel cards described by Nowak et al. ([47]) and Lapierre et al. ([48]), respectively. Briefly, fresh hen blood in Alsever's solution was washed with 0.15 M NaCl, whereupon a 4% erythrocyte solution (by volume in PBS) was prepared and incubated with 1 mg/ml trypsin at 37 °C for 1 h. The cells were then washed with 0.15 M NaCl. The erythrocytes were diluted and preserved as a 10% solution in ID-CellStab solution. For the hemagglutination in V-shaped microplates, 1 volume of erythrocyte suspension in PBS (final concentration 0.6%), 1 volume of galectin solution, 1 volume of 0.15 M NaCl with or without the galectin inhibitor, and 1 volume of 1% bovine serum albumin (BSA) in 0.15 M NaCl were added to each well of the microplate. The plate was then shaken vigorously for 90 min at room temperature and then left standing still for at least 90 min before observing the hemagglutination status in each well. […] Each mixture was then transferred to individual gel card wells, whereupon the cards were centrifuged for 10 min at 85 × g in an ID-Centrifuge (DiaMed GmbH) and thereafter photographed and analyzed for hemagglutination.

For assay [3], the system named is galectin-3 accumulation in JIMT-1 cells. In words: Inhibition of GPN-induced galectin-3 accumulation around disrupted lysosomes. It is filed as cell-based, human. The note with it: 1 or 10 μM for 24 h, then 0.3 mM GPN 12 min, positive control.
Description: The cells were, after the GPN treatment, quickly washed with PBS and fixed with 3.7% formaldehyde for 15 min before blocking/permeabilization with 1% Tween® 20 and 1–5% BSA in PBS for at least 45 min. […] The cell nuclei were visualized by staining with the DNA-binding fluorescent agent bisbenzimide (Hoechst). The coverslips were finally mounted on glass slides using Mowiol® 4-88 and left at 8 °C overnight to solidify before examination. The samples were imaged with an LSM-510 confocal laser scanning microscope (Carl Zeiss Microscopy GmbH, Oberkochen, Germany) equipped with a Hamamatsu R6357 photomultiplier (Hamamatsu Photonics K.K., Hamamatsu, Japan).

T1 sequence (P17931 whole entry): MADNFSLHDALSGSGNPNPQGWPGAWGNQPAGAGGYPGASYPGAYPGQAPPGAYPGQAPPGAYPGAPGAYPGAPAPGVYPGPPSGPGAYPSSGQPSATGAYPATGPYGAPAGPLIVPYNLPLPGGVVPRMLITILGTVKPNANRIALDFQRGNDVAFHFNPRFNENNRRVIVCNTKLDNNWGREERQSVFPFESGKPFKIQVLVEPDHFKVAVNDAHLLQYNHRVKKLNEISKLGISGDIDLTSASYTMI

Regarding `OC[C@H]1O[C@@H](S[C@@H]2O[C@H](CO)[C@H](O)[C@H](n3cc(-c4cccc(F)c4)nn3)[C@H]2O)[C@H](O)[C@@H](n2cc(-c3cccc(F)c3)nn2)[C@H]1O` [33DFTG, 3,3′-Dideoxy-3,3′-bis-[4-(3-fluorophenyl)-1H-1,2,3-triazol-1-yl]-1,1′-sulfanediyl-di-β-D-galactopyranoside], the “slope of MIC versus galectin-3 concentration, FA assay” value at galectin-3 [1] was “around 1”. For the same compound, the “Estimated MIC, inhibition of galectin-3-induced hemagglutination, V-plate” value on galectin-3 [2] (1 μM galectin-3) is 0.25 to 0.74 µM; at galectin-3 [2] (5 μM galectin-3), 2.22 to 6.67 µM. Moreover, the “slope of MIC versus galectin-3 concentration, hemagglutination” value on galectin-3 [2] (V-shaped microtiter plates, Fig. 4) is “around 1”. For the same compound, the “inhibition of GPN-induced galectin-3 accumulation” value in assay [3] was “inhibit the galectin-3 accumulation”.
